Values of other authors as cited in US7445902B2, “Fluorescent nucleotide analogues” (GE Healthcare UK Limited, priority 2004, dated 2008).

Tested on: receptor-Gαs/Gαi fusion proteins
Conditions: binding to receptor-Gαs/Gαi fusion proteins in the expression systems employed

fold lower affinity than GTPγS (relative to GTPγS) | fold lower affinity than GppNHp (relative to GppNHp) | Substance
1,100-5,600 fold |  | BODIPY-FL-guanosine 5′-[γ-thio]triphosphate [B-GTPγS]
 | 17-55 fold | BODIPY-FL-guanosine 5′-[β,γ-imido]triphosphate [B-GppNHp]
